From patent publication US8609638B2, “Enzyme inhibiting compounds and methods” (priority 2009, dated 2013)
Where two headings read alike, the source gives them in different places.

Molecular target: T1, IspH (LytB), E-4-hydroxy-3-methyl-but-2-enyl diphosphate reductase (Aquifex aeolicus, UniProt O67625)
T1 construct: inferred from Ni-NTA purification with imidazole elution; made in house; host or cells: E. coli BL-21(DE3)
Test: biochemical
Design: species or system A. aeolicus
Method: A. aeolicus IspH Protein Purification. BL-21(DE3) cells expressing IspH from A. aeolicus were grown in LB media supplemented with […] ampicillin at 37° C. until the OD600 reached 0.6. Cells were then induced with 200 μg/L anhydrotetracycline and then grown at 20° C. for 15 hours. Cells were harvested by centrifugation (9000 rpm, 8 min, 4° C.) and kept at −80° C. until use. Cell pellets were resuspended and lysed in B-PER (Thermo Scientific, Rockford, Ill.) protein extraction reagent for 1 hour at 4° C. and then centrifuged at […] at 4° C. for 15 minutes. The supernatant was applied to a Ni-NTA column equilibrated with 5 mM imidazole in pH 8.0 buffer containing 50 mM Tris HCl and 150 mM NaCl. After washing with 20 mM imidazole, protein was eluted with 100 mM imidazole. Fractions were collected and dialyzed in pH 8.0 buffer containing 50 mM Tris HCl, 150 mM NaCl, 5% glycerol, and 1 mM DTT, four times. The purified protein was flash-frozen in liquid nitrogen and stored at −80° C. until use.
E. coli IspH Protein Purification. BL21 DE3 (Invitrogen) cells harboring an E. coli IspH construct were grown in LB media at 37° C. until the OD600 reached 0.6. Induction was performed with 200 ng/mL anhydrotetracycline at 20° C. for 15 hours. Cells were harvested by centrifugation at 9000 rpm for 8 min and stored at −80° C. Cell pellets were resuspended and lysed in B-PER protein extraction reagent for about 1 hour at 4° C., and then the lysate was centrifuged at […] for 30 minutes. The supernatant was collected and loaded onto an IBA Strep-tag column equilibrated with buffer W (100 mM Tris.HCl, 150 mM NaCl, pH 8.0). After washing with buffer W, protein was eluted using buffer E (buffer W containing 2.5 mM desthiobiotin). Fractions were collected and dialyzed in pH 8.0 buffer containing 50 mM Tris.HCl, 150 mM NaCl, 5% glycerol, and 1 mM DTT, twice. The purified protein was flashfrozen in liquid nitrogen and stored at −80° C. until use.
Protein Reconstitution. […] Before reconstitution, protein was transferred into a Coy vinyl anaerobic chamber after being degassed on a Schlenk line. The following steps were performed inside the anaerobic chamber with an oxygen level <2 ppm. In a typical reconstitution experiment, 10 mM DTT and ˜0.5 mg of elemental sulfur were added to 3 mL of 0.6 mM protein solution in a pH 8.0 buffer containing 50 mM Tris HCl, 150 mM NaCl, and 5% glycerol. After 1.5 hours under stirring, FeCl3 was slowly added from a 30 mM stock solution to 6 equiv. After 3 hours, an aliquot of the solution was centrifuged and a UV-vis spectrum recorded. If the A410 nm/A280 nm ratio was ≧0.38, the protein was then desalted by passing through a PD10 column. If the ratio was <0.38, more DTT, elemental sulfur, and FeCl3 were added, and the sample was incubated with stirring (for typically ˜2 h) until the 410 nm/280 nm absorption ratio was ˜0.38. The reconstituted protein was then concentrated by ultrafiltration, and the protein concentration was determined by using a Bio-Rad (Hercules, Calif.) protein assay kit.
IspH inhibition assays. Assays were performed anaerobically at room temperature according to the methods of Altincicek et. al. (FEBS Lett. (2002) 532: 437-440) with the following modifications. […]
For enzyme assays, various amounts of the test inhibitor ([…]) were added and the reactions were monitored at 732 nm. […]

T1 sequence (O67625 whole entry): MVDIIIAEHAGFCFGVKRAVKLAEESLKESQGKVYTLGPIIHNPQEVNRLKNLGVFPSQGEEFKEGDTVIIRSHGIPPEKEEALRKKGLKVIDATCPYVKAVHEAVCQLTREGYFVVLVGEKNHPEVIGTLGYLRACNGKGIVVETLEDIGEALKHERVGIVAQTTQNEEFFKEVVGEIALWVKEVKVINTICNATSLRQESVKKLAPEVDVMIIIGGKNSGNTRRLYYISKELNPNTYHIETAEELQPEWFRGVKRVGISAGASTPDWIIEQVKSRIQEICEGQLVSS

C#CCCOP(=O)(O)OP(=O)(O)O [BPH-1077, But-3-ynyl diphosphate]
Ki (IspH inhibition, Ki deduced from IC50 by Cheng-Prusoff equation, read-out: Ki): ~0.2 µM

C#CCOP(=O)(O)OP(=O)(O)O [BPH-1061, Prop-2-ynyl diphosphate]
IC50 (IspH inhibition, inhibitor incubated 10 minutes before 34 μM HMBPP): 6.8 µM

C#CCO [Propargyl alcohol, reference compound]
Ki (IspH inhibition, read-out: Ki): > 10000 µM

O=C(O)CCCCOP(=O)(O)OP(=O)(O)O [BPH-988, 5-Pentanoic acid diphosphate]
Ki (Ki): 51 µM

C#CC[PH](=O)CP(=O)(O)O (centres unmarked) [BPH-1084, [[(Prop-2-ynyl)phosphinyl]methyl]phosphonic acid]
activity in IspH inhibition (in words) (relative to parent or comparator compounds): decreased activity
